Results as given in patent US8551999B2, “Heterocyclic compound and pharmaceutical composition thereof” (Otsuka Pharmaceutical Co., Ltd., priority 2007, dated 2013).

Structure (SMILES) | melting point
COc1ccccc1/C=C/CN1CCN(C(=O)c2cc3cc(Oc4ccc(NC(=O)c5ccc(C(F)(F)F)cc5)cn4)ccc3n2C)CC1.CS(=O)(=O)O [Example 358, N-[6-(2-{4-[(E)-3-(2-Methoxyphenyl)allyl]piperazine-1-carbonyl}-1-methyl-1H-indol-5-yloxy)pyridin-3-yl]-4-trifluoromethyl-benzamide methanesulfonate] | 268 to 271 °C (dec.)
Cc1cc(C(F)(F)F)ccc1C(=O)Nc1ccc(Oc2ccc3cc(C(=O)N4CCN(Cc5ccc(OC(F)F)cc5)CC4)n(C)c3c2)nc1.Cl | 204.9 to 205.7 °C
Br.Cn1c(C(=O)N2CCN(Cc3ccc(OC(F)(F)C(F)F)cc3)CC2)cc2cc(Oc3ccc(NC(=O)c4ccc(C(F)(F)F)cc4)cn3)ccc21 [Example 402, N-[6-(1-Methyl-2-{4-[4-(1,1,2,2-tetrafluoroethoxy)benzyl]-piperazine-1-carbonyl}-1H-indol-5-yloxy)pyridin-3-yl]-4-tri-fluoromethylbenzamide hydrobromide] | 255 to 257 °C
Br.CN(C(=O)c1ccc(Cl)c(Cl)c1)c1ccc(Oc2ccc3cc(C(=O)N4CCN(Cc5ccc(OCC(F)(F)F)cc5)CC4)n(C)c3c2)nc1 [Example 484, 3,4-Dichloro-N-methyl-N-[6-(1-methyl-2-{4-[4-(2,2,2-trifluoro-ethoxy)benzyl]piperazine-1-carbonyl}-1H-indol-6-yloxy)pyridin-3-yl]benzamide hydrobromide] | 197.1 to 201.5 °C
Br.CCOc1ccc(CN2CCN(C(=O)c3cc4cc(Oc5ccc(NC(=O)c6ccc(C(F)(F)F)cc6)cn5)ccc4n3C)CC2)cc1 [Example 363, N-(6-{2-[4-(4-Ethoxybenzyl)piperazine-1-carbonyl]-1-methyl-1H-indol-5-yloxy}pyridin-3-yl)-4-trifluoromethylbenzamide hydrobromide] | 231 to 234 °C
Br.CC(C)Cc1ccc(CN2CCN(C(=O)c3cc4ccc(Oc5ccc(N(C)C(=O)c6ccc(C(F)(F)F)cc6)cn5)cc4n3C)CC2)cc1 [Example 430, N-(6-{2-[4-(4-Isobutylbenzyl)piperazine-1-carbonyl]-1-methyl-1H-indol-6-yloxy}pyridin-3-yl)-N-methyl-4-trifluoromethylbenzamide hydrobromide] | 262 to 265 °C
Br.Cn1c(C(=O)N2CCN(Cc3ccc4c(c3)OCO4)CC2)cc2cc(Oc3ccc(NCc4ccc(Cl)c(Cl)c4)cn3)ccc21 [Example 333, (4-Benzo[1,3]dioxol-5-ylmethylpiperazin-1-yl)(5-{5-[(3,4-di-chlorophenyl)methylamino]pyridin-2-yloxy}-1-methyl-1H-indol-2-yl)methanone hydrobromide] | 205 to 214 °C
Cc1ccc(S(=O)(=O)Nc2ccc(Oc3ccc4cc(C(=O)N5CCN(Cc6ccc(OCC(F)(F)F)cc6)CC5)n(C)c4c3)nc2)cc1 [Example 71, 4-Methyl-N-[6-(1-methyl-2-{4-[4-(2,2,2-trifluoroethoxy)benzyl]-piperazine-1-carbonyl}-1H-indol-6-yloxy)pyridin-3-yl]benzene-sulfonamide] | 198.3 to 200.3 °C
Br.Cn1c(C(=O)N2CCN(Cc3ccc(OCC(F)F)cc3)CC2)cc2ccc(Oc3ccc(NC(=O)c4ccc(Cl)c(Cl)c4)cn3)cc21 [Example 268, 3,4-Dichloro-N-[6-(2-{4-[4-(2,2-difluoroethoxy)benzyl]piperazine-1-carbonyl}-1-methyl-1H-indol-6-yloxy)pyridin-3-yl]benzamide hydrobromide] | 221.5 to 222.3 °C
Br.CCn1c(C(=O)N2CCN(Cc3ccc4c(c3)OCO4)CC2)cc2cc(Oc3ccc(N(C)C(=O)c4ccc(C(F)(F)F)cc4)cn3)ccc21 [Example 344, N-{6-[2-(4-Benzo[1,3]dioxol-5-ylmethylpiperazine-1-carbonyl)-1-ethyl-1H-indol-5-yloxy]pyridin-3-yl}-N-methyl-4-trifluoromethyl-benzamide hydrobromide] | 179 to 183 °C
Cc1ccc(S(=O)(=O)N(C)c2ccc(Oc3ccc4cc(C(=O)N5CCN(Cc6ccc(OCC(F)(F)F)cc6)CC5)n(C)c4c3)nc2)cc1.Cl | 246.4 to 247.2 °C
